Results reported in publication PMC8854719, “Phase 1A/1B dose-escalation and -expansion study to evaluate the safety, pharmacokinetics, food effects and antitumor activity of pamiparib in advanced solid tumours” (British Journal of Cancer, 2021).
Marks after values point to notes of the source that are not given here.

Assay: Safety and tolerability: adverse events, dose-limiting toxicities, MTD, RP2D (Phase 1A/1B)
Type: in vivo
Method: This was an open-label, Phase 1, dose-escalation/dose-expansion study, conducted across six study centres in Australia. The dose-escalation phase evaluated twice-daily (BID) and once-daily (QD) dosing, and the dose-expansion phase evaluated the BID RP2D from the dose-escalation phase and food effects (Fig. 1). The food-effects cohort comprised two sequences: fast followed by fed (sequence 1) and fed followed by fast (sequence 2). […] The decision to proceed to the next dose cohort was determined by the Safety Monitoring Committee and followed a modified 3 + 3 escalation scheme. […] When ≥2 DLTs occurred in the first 23 days of a dose level, the next lower dose level was declared the MTD. Safety was monitored and DLTs were assessed in all dose cohorts. […] The food-effects cohort investigated the effects of food on the PK of pamiparib in patients with advanced solid tumours.
The QD dosing regimen was added as an amendment to the protocol with the purpose of exploring the feasibility of a more convenient regimen.
Safety and tolerability were assessed throughout the study by monitoring adverse events (AEs), serious AEs, clinical laboratory measurements and physical examinations. Adverse events were categorised according to their severity (National Cancer Institute Common Terminology Criteria for Adverse Events v4.03) and relationship to the study treatment.

C[C@]12CCCN1CC1=NNC(=O)c3cc(F)cc4[nH]c2c1c34 [pamiparib]
Ascites, AE of any grade (80 mg BID (n = 10)): 1 (10.0) n (%) | Back pain, AE of any grade (80 mg BID (n = 10)): 0 (0.0) n (%) | Constipation, AE of any grade (80 mg BID (n = 10)): 4 (40.0) n (%) | Cough, AE of any grade (80 mg BID (n = 10)): 1 (10.0) n (%) | Decreased appetite, AE of any grade (80 mg BID (n = 10)): 2 (20.0) n (%) | Diarrhoea, AE of any grade (80 mg BID (n = 10)): 1 (10.0) n (%) | Dose-limiting toxicity (80 mg BID (n = 10)): 1 (10.0)^b n (%) | Dyspnoea, AE of any grade (80 mg BID (n = 10)): 0 (0.0) n (%) | Fatigue, AE of any grade (80 mg BID (n = 10)): 4 (40.0) n (%) | Headache, AE of any grade (80 mg BID (n = 10)): 0 (0.0) n (%) | Hypoalbuminemia, AE of any grade (80 mg BID (n = 10)): 0 (0.0) n (%) | Hypomagnesemia, AE of any grade (80 mg BID (n = 10)): 2 (20.0) n (%) | Hypophosphatemia, AE of any grade (80 mg BID (n = 10)): 0 (0.0) n (%) | Increased AST, AE of any grade (80 mg BID (n = 10)): 0 (0.0) n (%) | Muscle spasms, AE of any grade (80 mg BID (n = 10)): 1 (10.0) n (%) | Nausea, AE of any grade (80 mg BID (n = 10)): 8 (80.0) n (%) | Neutropenia, AE of any grade (80 mg BID (n = 10)): 3 (30.0) n (%) | Non-cardiac chest pain, AE of any grade (80 mg BID (n = 10)): 1 (10.0) n (%) | Pain in extremity, AE of any grade (80 mg BID (n = 10)): 0 (0.0) n (%) | Peripheral sensory neuropathy, AE of any grade (80 mg BID (n = 10)): 0 (0.0) n (%) | Pleural effusion, AE of any grade (80 mg BID (n = 10)): 0 (0.0) n (%) | Pyrexia, AE of any grade (80 mg BID (n = 10)): 1 (10.0) n (%) | Treatment-emergent AE (80 mg BID (n = 10)): 10 (100.0) n (%) | Treatment-emergent AE: Grade 3 or higher (80 mg BID (n = 10)): 4 (40.0) n (%) | Treatment-emergent AE: Leading to death (80 mg BID (n = 10)): 1 (10.0) n (%) | Treatment-emergent AE: Leading to dose interruption (80 mg BID (n = 10)): 5 (50.0) n (%) | Treatment-emergent AE: Leading to dose modification (80 mg BID (n = 10)): 5 (50.0) n (%) | Treatment-emergent AE: Leading to dose reduction (80 mg BID (n = 10)): 1 (10.0) n (%) | Treatment-emergent AE: Leading to treatment discontinuation (80 mg BID (n = 10)): 0 (0.0) n (%) | Treatment-emergent AE: Serious (80 mg BID (n = 10)): 3 (30.0) n (%) | Treatment-related AE (80 mg BID (n = 10)): 9 (90.0) n (%) | Treatment-related AE: Grade 3 or higher (80 mg BID (n = 10)): 3 (30.0) n (%) | Treatment-related AE: Leading to death (80 mg BID (n = 10)): 0 (0.0) n (%) | Treatment-related AE: Leading to dose interruption (80 mg BID (n = 10)): 5 (50.0) n (%) | Treatment-related AE: Leading to dose modification (80 mg BID (n = 10)): 5 (50.0) n (%) | Treatment-related AE: Leading to dose reduction (80 mg BID (n = 10)): 1 (10.0) n (%) | Treatment-related AE: Leading to treatment discontinuation (80 mg BID (n = 10)): 0 (0.0) n (%) | Treatment-related AE: Serious (80 mg BID (n = 10)): 1 (10.0) n (%) | Upper respiratory tract infection, AE of any grade (80 mg BID (n = 10)): 5 (50.0) n (%) | Urinary tract infection, AE of any grade (80 mg BID (n = 10)): 2 (20.0) n (%) | Vomiting, AE of any grade (80 mg BID (n = 10)): 2 (20.0) n (%) | Dose-limiting toxicities observed (description) (80 mg BID, n = 1): Grade 2 nausea | Abdominal pain, AE of any grade (120 mg BID (n = 5)): 0 (0.0) n (%) | Anaemia, AE of any grade (120 mg BID (n = 5)): 3 (60.0) n (%) | Ascites, AE of any grade (120 mg BID (n = 5)): 0 (0.0) n (%) | Back pain, AE of any grade (120 mg BID (n = 5)): 1 (20.0) n (%) | Constipation, AE of any grade (120 mg BID (n = 5)): 0 (0.0) n (%) | Cough, AE of any grade (120 mg BID (n = 5)): 1 (20.0) n (%) | Decreased appetite, AE of any grade (120 mg BID (n = 5)): 2 (40.0) n (%) | Diarrhoea, AE of any grade (120 mg BID (n = 5)): 2 (40.0) n (%) | Dose-limiting toxicity (120 mg BID (n = 5)): 2 (40.0)^c n (%) | Dyspnoea, AE of any grade (120 mg BID (n = 5)): 0 (0.0) n (%) | Fatigue, AE of any grade (120 mg BID (n = 5)): 2 (40.0) n (%) | Headache, AE of any grade (120 mg BID (n = 5)): 0 (0.0) n (%) | Hypoalbuminemia, AE of any grade (120 mg BID (n = 5)): 0 (0.0) n (%) | Hypomagnesemia, AE of any grade (120 mg BID (n = 5)): 0 (0.0) n (%) | Hypophosphatemia, AE of any grade (120 mg BID (n = 5)): 1 (20.0) n (%) | Increased AST, AE of any grade (120 mg BID (n = 5)): 1 (20.0) n (%) | Muscle spasms, AE of any grade (120 mg BID (n = 5)): 0 (0.0) n (%) | Nausea, AE of any grade (120 mg BID (n = 5)): 4 (80.0) n (%) | Neutropenia, AE of any grade (120 mg BID (n = 5)): 1 (20.0) n (%) | Non-cardiac chest pain, AE of any grade (120 mg BID (n = 5)): 1 (20.0) n (%) | Pain in extremity, AE of any grade (120 mg BID (n = 5)): 1 (20.0) n (%) | Peripheral sensory neuropathy, AE of any grade (120 mg BID (n = 5)): 0 (0.0) n (%) | Pleural effusion, AE of any grade (120 mg BID (n = 5)): 1 (20.0) n (%)
